Columns and labels:
[1] = system: polyglutamine luciferase reporter; assay: Screening: polyglutamine luciferase reporter assay in NUGC3 cells (luminescence % of DMSO); assay type: cell-based, human; conditions: NUGC3 cells, luminescence relative to DMSO, concentration not given
[2] = system: YAP/TAZ; assay: Screening: YAP/TAZ activity reporter (8xGTIIC plasmid) assay in NUGC3 cells (luminescence % of DMSO); assay type: cell-based, human; conditions: NUGC3 cells, luminescence relative to DMSO, concentration not given
[3] = system: triple-negative breast cancer cell line MDA-MB-231; assay: Anti-tumor effect evaluation test in MDA-MB-231 tumor model mice; assay type: in vivo, immunodeficient mice (BALB/c-nu/nu); conditions: 100 mg/kg intraperitoneally every other day in corn oil; FIG. 1 and 2
Description: A cell suspension (1×10^6 cells/100 μL), in which triple-negative breast cancer cell line MDA-MB-231 was suspended in phosphate buffer (PBS, produced by FUJIFILM Wako Pure Chemical Corporation), was inoculated subcutaneously in the dorsal lumbar region of immunodeficient mice (BALB/c-nu/nu, female, 6 weeks old, purchased from Shimizu Laboratory Supplies Co., Ltd.) using a syringe with a 23 G injection needle (Terumo Corporation). After confirming that the cancer cells engrafted under the skin of the mice to form tumor tissues, and that the tumor volume reached 100 mm^3, the obtained tumor model mice were used for the following evaluation test. First, each compound for evaluation was dissolved in corn oil (produced by Sigma-Aldrich Co., LLC) and administered intraperitoneally. PVZF0024 was administered at 100 mg/kg and PVZF2001 was administered at 20 mg/kg to the tumor model mice every other day. At each administration, the tumor diameter was measured with a caliper. The tumor volume was calculated according to the following formula: V=(3.14×D×d^2)/6 (wherein V is the tumor volume, D is the tumor major axis, and d is the tumor minor axis) (Wu. et al., Clin. Cancer Res., 2013 Oct. 15; 19(20): 5699-5710).

[4] = polyglutamine luciferase reporter
[5] = YAP/TAZ activity reporter (8×GTIIC)

Compound | Polyglutamine [1] [%] | 8×GTIIC [2] [%] | antitumor effect (tumor growth, tumor volume) [3] | Polyglutamine [1, 4] [%] | 8×GTIIC [2, 5] [%]
Oc1ccccc1C1CC(c2ccc3c(c2)OCCO3)=NN1 (stereo not drawn) [PVZF0024] | 15.8 | 23.4 | significantly inhibit tumor growth | – | –
Cc1cc(C(C)(C)C)cc(C)c1S(=O)(=O)CC1CCC(C2CC2)CC1 (stereo not drawn) [SA053] | – | – | – | 35.39 | 55.02
Cc1cccc(S(=O)(=O)CC2CCC(C3CC3)CC2)c1 (stereo not drawn) [SA054] | – | – | – | 109.1 | 83.34
Cc1ccc(S(=O)(=O)CC2CCC(C3CC3)CC2)cc1C (stereo not drawn) [SA055] | – | – | – | 81.09 | 82.18
Cc1ccc(S(=O)(=O)CC2CCC(C3CC3)CC2)c(C)c1 (stereo not drawn) [SA057] | – | – | – | 79.6 | 73.76
CC(C)c1ccc(S(=O)(=O)CC2CCC(C3CC3)CC2)cc1 (stereo not drawn) [SA058] | – | – | – | 76.81 | 35.45
Cc1ccccc1S(=O)(=O)CC1CCC(S(C)(=O)=O)CC1 (stereo not drawn) [SA059] | – | – | – | 100.9 | 88.99
Cc1ccc(S(=O)(=O)CC2CCC(S(C)(=O)=O)CC2)cc1 (stereo not drawn) [SA060] | – | – | – | 92.41 | 90.52
CS(=O)(=O)C1CCC(CS(=O)(=O)c2ccc3c(c2)CCCCC3)CC1 (stereo not drawn) [SA061] | – | – | – | 66.4 | 96.27
Cc1ccc(S(=O)(=O)CC2CCC(S(C)(=O)=O)CC2)cc1 (stereo not drawn) [SA062] | – | – | – | 93.21 | 100.9
CCc1ccc(S(=O)(=O)CC2CCC(S(C)(=O)=O)CC2)cc1CC (stereo not drawn) [SA063] | – | – | – | 78.75 | 93.35
Cc1ccc(C)c(S(=O)(=O)CC2CCC(S(C)(=O)=O)CC2)c1 (stereo not drawn) [SA064] | – | – | – | 54.39 | 64.48
CS(=O)(=O)C1CCC(CS(=O)(=O)c2ccc3c(c2)CCCC3)CC1 (stereo not drawn) [SA065] | – | – | – | 47.58 | 39.43
CC(C)(C)c1cc(C(C)(C)C)cc(S(=O)(=O)CC2CCC(C3CC3)CC2)c1 (stereo not drawn) [SA066] | – | – | – | 66.16 | 64.4
Cc1ccc(S(=O)(=O)CC2CCC(C3CC3)CC2)cc1 (stereo not drawn) [SA067] | – | – | – | 75.3 | 75.49
CCC1CCC(C(C)S(=O)(=O)c2c(C)cc(C(C)(C)C)cc2C)CC1 (stereo not drawn) [SA068] | – | – | – | 81.58 | 110.2
C=C(CCC)C1CCC(CS(=O)(=O)c2ccc(C)cc2C(C)(C)C)CC1 (stereo not drawn) [SA069] | – | – | – | 76.83 | 67.61

Compound | Polyglutamine [1] [%] | 8×GTIIC [2] [%] | antitumor effect (tumor growth, tumor volume) [3] | Polyglutamine [1, 4] [%] | 8×GTIIC [2, 5] [%]
CC(C)(C)c1cc(C(C)(C)C)cc(S(=O)(=O)CC2CCC(S(C)(=O)=O)CC2)c1 (stereo not drawn) [SA070] | – | – | – | 59.04 | 109.7
O=S(=O)(CC1CCC(S(=O)(=O)C2CCCCC2)CC1)c1ccccc1 (stereo not drawn) [SA071] | – | – | – | 61.72 | 138.5
CC1CCC(S(=O)(=O)C2CCC(CS(=O)(=O)c3ccccc3)CC2)CC1 (stereo not drawn) [SA072] | – | – | – | 73.98 | 68.16
CC(=O)c1ccccc1S(=O)(=O)CC1CCC(S(C)(=O)=O)CC1 (stereo not drawn) [SA074] | – | – | – | 92.5 | 88.44
CCS(=O)(=O)C1CCC(CS(=O)(=O)c2ccc(C)cc2C)CC1 (stereo not drawn) [SA075] | – | – | – | 110.7 | 95.02
Cc1ccc(S(=O)(=O)CC2CCC(S(C)(=O)=O)CC2)c(C)c1 (stereo not drawn) [SA076] | – | – | – | 98.03 | 64.29
CCS(=O)(=O)C1CCC(CS(=O)(=O)c2cc(C(C)C)cc(C)c2C)CC1 (stereo not drawn) [SA077] | – | – | – | 65.09 | 66.59
Cc1cc(C(C)C)cc(S(=O)(=O)CC2CCC(S(C)(=O)=O)CC2)c1C (stereo not drawn) [SA078] | – | – | – | 87.12 | 95.87
Cc1c(C)c(C)c(S(=O)(=O)CC2CCC(S(C)(=O)=O)CC2)c(C)c1C (stereo not drawn) [SA080] | – | – | – | 55.01 | 62.45
Cc1ccc(S(=O)(=O)CC2CCC(S(C)(=O)=O)CC2)c(C(C)(C)C)c1 (stereo not drawn) [SA085] | – | – | – | 86 | 83.09
Cc1cc(C)c(C)c(S(=O)(=O)CC2CCC(S(C)(=O)=O)CC2)c1C (stereo not drawn) [SA086] | – | – | – | 33.07 | 40.75
CC(C)(C)c1ccccc1S(=O)(=O)CC1CCC(C2CC2)CC1 (stereo not drawn) [SA087] | – | – | – | 78.43 | 59.57
CC(C)(C)Cc1ccccc1S(=O)(=O)CC1CCC(C2CC2)CC1 (stereo not drawn) [SA089] | – | – | – | 56.61 | 50.1
CC1CC(C)CC(S(=O)(=O)C2CCC(CS(=O)(=O)c3ccccc3)CC2)C1 (stereo not drawn) [SA090] | – | – | – | 84.73 | 64.02
O=S(=O)(CC1CCC(C2CC2)CC1)c1ccc2c(c1)CCC2 (stereo not drawn) [SA091] | – | – | – | 88.36 | 101.3
Cc1cc(C)c(C)c(S(=O)(=O)CC2CCC(S(C)(=O)=O)CC2)c1C (stereo not drawn) [SA093] | – | – | – | 38.43 | 39.06
CCc1ccc(CC)c(S(=O)(=O)CC2CCC(S(C)(=O)=O)CC2)c1 (stereo not drawn) [SA095] | – | – | – | 44.97 | 67.3

— US20230210834A1, “RNA METHYLTRANSFERASE INHIBITOR, SCREENING METHOD THEREFOR, ANTI-CANCER AGENT EFFICACY ASSESSMENT MARKER, AND KIT FOR EFFECTIVELY PREDICTING FTSJ1 INHIBITOR” (National University Corporation Okayama University, priority 2019, published 2023)
